Reference: ChEMBL document CHEMBL5634109, “Synthesis and mechanism of action of new purine derivatives against triple negative breast cancer” (Eur J Med Chem, 2023)
Active and inactive are the calls of the source. No cut-off for these calls is given here.

How the values were obtained:
MDA-MB-231 [1] = experiment: Induction of ROS generation in human MDA-MB-231 cells assessed as increase in intracellular ROS level at 40 uM incubated for 48 hrs by DCFH-DA staining based fluorescence microscopic analysis (Rvb=41.4%); assay type: functional
MDA-MB-231 [2] = experiment: Induction of apoptosis in human MDA-MB-231 cells assessed as increase in number of cell debris at 4 uM incubated for 48 hrs; assay type: functional, cell-based
[3] = biological target: Dual specificity protein kinase CLK4 (Homo sapiens, UniProt Q9HAZ1); experiment: Inhibition of CLK4 (unknown origin)
MDA-MB-231 [4] = experiment: Antiproliferative activity against human MDA-MB-231 cells assessed as reduction in viability at 10 uM incubated for 7.5 hrs by MTT assay; assay type: functional
MDA-MB-231 [5] = experiment: Antitumor activity against human MDA-MB-231 cells xenografted in nude mouse assessed as decrease in CD31 expression at 10 mg/kg, ip measured for 3 days by immunohistochemistry analysis; assay type: functional, organism-based; conditions: time 3.0 day
MDA-MB-231 [6] = experiment: Inhibition of cell migration human MDA-MB-231 cells assessed as migration distance at 25 uM incubated for 24 hrs by wound healing assay (reference value: 642.72 micrometer); assay type: functional
PC-3 = experiment: Antiproliferative activity against human PC-3 cells assessed as reduction in cell viability measured for 48 hrs by MTT assay; assay type: functional, cell-based; conditions: PC-3, 48 h
MDA-MB-231 [7] = experiment: Induction of apoptosis in human MDA-MB-231 cells assessed as apoptotic cells at 4 uM incubated for 12 hrs by Annexin V-FITC/PI staining based analysis; assay type: functional
MDA-MB-231 [8] = experiment: Induction of apoptosis in human MDA-MB-231 cells assessed as apoptotic cells at 40 uM incubated for 12 hrs by Annexin V-FITC/PI staining based analysis; assay type: functional
HCT-116 = experiment: Antiproliferative activity against human HCT-116 cells assessed as reduction in cell viability measured for 48 hrs by MTT assay; assay type: functional, cell-based; conditions: HCT-116, 48 h
MDA-MB-468 = experiment: Antiproliferative activity against human MDA-MB-468 cells assessed as reduction in cell viability measured for 48 hrs by MTT assay; assay type: functional, cell-based; conditions: MDA-MB-468, 48 h
HUVEC [9] = experiment: Antiangiogenesis activity in HUVEC cells at 0.03 to 0.3 uM incubated for 12 hrs by microscopic analysis; assay type: functional, cell-based; conditions: Homo sapiens, dose 0.03-0.3 µM
MDA-MB-231 [10] = experiment: Antitumor activity against human MDA-MB-231 cells xenografted in nude mouse assessed as inhibition of spleen metastasis in tumor at 10 mg/kg, ip measured for 3 days; assay type: functional, organism-based; conditions: time 3.0 day
[11] = biological target: Dual specificity tyrosine-phosphorylation-regulated kinase 1A (Homo sapiens, UniProt Q13627); experiment: Inhibition of DYRK1A (unknown origin)
MGC-803 = experiment: Antiproliferative activity against human MGC-803 cells assessed as reduction in cell viability measured for 48 hrs by MTT assay; assay type: functional, cell-based; conditions: MGC-803, 48 h
[12] = Antiproliferative activity against human HUVEC cells assessed as reduction in cell viability measured for 48 hrs by MTT assay; assay type: toxicity, cell-based
[13] = biological target: Casein kinase I isoform epsilon (Homo sapiens, UniProt P49674); experiment: Inhibition of CK1epsilon (unknown origin)
MDA-MB-231 [14] = experiment: Antitumor activity against human MDA-MB-231 cells xenografted in nude mouse assessed as reduction in tumor growth at 10 to 20 mg/kg, ip measured for 3 days; assay type: functional, organism-based; conditions: dose 10-20 mg/kg, time 3.0 day
MDA-MB-231 [15] = experiment: Antitumor activity against human MDA-MB-231 cells xenografted in nude mouse assessed as decrease in tumor size at 10 to 20 mg/kg, ip measured for 3 days; assay type: functional, organism-based; conditions: dose 10-20 mg/kg, time 3.0 day
NCI-H1299 = experiment: Antiproliferative activity against human NCI-H1299 cells assessed as reduction in cell viability measured for 48 hrs by MTT assay; assay type: functional, cell-based; conditions: NCI-H1299, 48 h
MDA-MB-231 [16] = experiment: Induction of apoptosis in human MDA-MB-231 cells assessed as increase in number of apoptotic bodies at 4 uM incubated for 48 hrs; assay type: functional, cell-based
MDA-MB-231 [17] = experiment: Antitumor activity against human MDA-MB-231 cells xenografted in nude mouse assessed as inhibition of lung metastasis in tumor at 10 mg/kg, ip measured for 3 days; assay type: functional, organism-based; conditions: time 3.0 day
MDA-MB-231 [18] = experiment: Induction of apoptosis in human MDA-MB-231 cells assessed as apoptotic cells at 40 uM incubated for 24 hrs by Annexin V-FITC/PI staining based analysis; assay type: functional
HUVEC [19] = experiment: Antiangiogenesis activity in HUVEC cells at 62.5 nM incubated for 12 hrs by microscopic analysis; assay type: functional, cell-based; conditions: Homo sapiens
HepG2 = experiment: Antiproliferative activity against human HepG2 cells assessed as reduction in cell viability measured for 48 hrs by MTT assay; assay type: functional, cell-based; conditions: HepG2, 48 h
MCF7 = experiment: Antiproliferative activity against human MCF7 cells assessed as reduction in cell viability measured for 48 hrs by MTT assay; assay type: functional, cell-based; conditions: MCF7, 48 h
[20] = biological target: Cyclin-dependent kinase 7 (Homo sapiens, UniProt P50613); experiment: Inhibition of CDK7 (unknown origin)
MDA-MB-231 [21] = experiment: Induction of apoptosis in human MDA-MB-231 cells assessed as apoptotic cells at 4 uM incubated for 24 hrs by Annexin V-FITC/PI staining based analysis; assay type: functional
MDA-MB-231 [22] = experiment: Inhibition of cell migration human MDA-MB-231 cells at 0.01 to 0.4 uM incubated for 20 hrs by DAPI staining based analysis; assay type: functional; conditions: dose 0.01-0.4 µM
[23] = Toxicity in nude mouse xenografted with human MDA-MB-231 cells assessed as change in body weight at 10 to 20 mg/kg, ip measured for 3 days; assay type: organism-based; conditions: in vivo, 72 h, dose 10-20 mg/kg, time 3 day
[24] = biological target: Dual specificity protein kinase CLK1 (Homo sapiens, UniProt P49759); experiment: Inhibition of CLK1 (unknown origin)
MDA-MB-231 [25] = experiment: Antitumor activity against human MDA-MB-231 cells xenografted in nude mouse assessed as inhibition of proliferation of tumor cells at 10 mg/kg, ip measured for 3 days by H and E staining based analysis; assay type: functional, organism-based; conditions: time 3.0 day
A549 = experiment: Antiproliferative activity against human A549 cells assessed as reduction in cell viability measured for 48 hrs by MTT assay; assay type: functional, cell-based; conditions: A549, 48 h
MDA-MB-231 [26] = experiment: Antiproliferative activity against human MDA-MB-231 cells assessed as reduction in viability at 4 uM incubated for 7.5 hrs by MTT assay; assay type: functional
MDA-MB-231 [27] = experiment: Induction of apoptosis in human MDA-MB-231 cells assessed as apoptotic cells at 4 uM incubated for 48 hrs by Annexin V-FITC/PI staining based analysis; assay type: functional
MDA-MB-231 [28] = experiment: Antitumor activity against human MDA-MB-231 cells xenografted in nude mouse assessed as decrease in Ki67 expression at 10 mg/kg, ip measured for 3 days by immunohistochemistry analysis; assay type: functional, organism-based; conditions: time 3.0 day
HT-29 = experiment: Antiproliferative activity against human HT-29 cells assessed as reduction in cell viability measured for 48 hrs by MTT assay; assay type: functional, cell-based; conditions: HT-29, 48 h
MDA-MB-231 [29] = experiment: Induction of apoptosis in human MDA-MB-231 cells assessed as apoptotic cells at 40 uM incubated for 48 hrs by Annexin V-FITC/PI staining based analysis; assay type: functional
Cell membrane = experiment: Induction of mitochondrial membrane potential loss in human MDA-MB-231 cells assessed as increase in fluorescence intensity at 40 uM incubated for 48 hrs by TMRM dye based flow cytometry analysis (reference value: 97.5%)
MDA-MB-231 [30] = experiment: Antiproliferative activity against human MDA-MB-231 cells assessed as reduction in cell viability measured for 48 hrs by MTT assay; assay type: functional, cell-based; conditions: MDA-MB-231, 48 h
[31] = Hepatotoxicity in nude mouse at 10 mg/kg, ip measured for 3 days; assay type: toxicity, organism-based; conditions: in vivo, 72 h, time 3 day
MDA-MB-231 [32] = experiment: Induction of apoptosis in human MDA-MB-231 cells assessed as formation of apoptotic bodies at 4 uM incubated for 6 hrs; assay type: functional, cell-based
K562 = experiment: Antiproliferative activity against human K562 cells assessed as reduction in cell viability measured for 48 hrs by MTT assay; assay type: functional, cell-based; conditions: K562, 48 h
[33] = biological target: Dual specificity protein kinase CLK2 (Homo sapiens, UniProt P49760); experiment: Inhibition of CLK2 (unknown origin)
MDA-MB-231 [34] = experiment: Inhibition of cell migration human MDA-MB-231 cells assessed as migration distance at 25 uM incubated for 48 hrs by wound healing assay (reference value: 642.72 micrometer); assay type: functional
MDA-MB-231 [35] = experiment: Induction of apoptosis in human MDA-MB-231 cells assessed as change in cell shape at 4 uM incubated for 12 to 24 hrs; assay type: functional, cell-based; conditions: time 12-24 hrs
[36] = Antiproliferative activity against human HEK293 cells assessed as reduction in cell viability measured for 48 hrs by MTT assay; assay type: toxicity, cell-based

Cyclin-dependent kinase 7, sequence (P50613 whole entry): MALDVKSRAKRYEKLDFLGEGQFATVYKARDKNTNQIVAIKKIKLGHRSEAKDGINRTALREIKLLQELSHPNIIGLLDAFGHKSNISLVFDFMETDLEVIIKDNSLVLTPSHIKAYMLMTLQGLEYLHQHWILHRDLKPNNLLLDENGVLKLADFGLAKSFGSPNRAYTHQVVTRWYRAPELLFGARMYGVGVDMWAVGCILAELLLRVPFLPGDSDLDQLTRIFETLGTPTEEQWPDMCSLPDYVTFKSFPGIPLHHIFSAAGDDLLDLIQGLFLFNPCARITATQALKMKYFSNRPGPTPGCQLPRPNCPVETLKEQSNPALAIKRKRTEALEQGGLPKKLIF
Dual specificity protein kinase CLK1, sequence (P49759 whole entry): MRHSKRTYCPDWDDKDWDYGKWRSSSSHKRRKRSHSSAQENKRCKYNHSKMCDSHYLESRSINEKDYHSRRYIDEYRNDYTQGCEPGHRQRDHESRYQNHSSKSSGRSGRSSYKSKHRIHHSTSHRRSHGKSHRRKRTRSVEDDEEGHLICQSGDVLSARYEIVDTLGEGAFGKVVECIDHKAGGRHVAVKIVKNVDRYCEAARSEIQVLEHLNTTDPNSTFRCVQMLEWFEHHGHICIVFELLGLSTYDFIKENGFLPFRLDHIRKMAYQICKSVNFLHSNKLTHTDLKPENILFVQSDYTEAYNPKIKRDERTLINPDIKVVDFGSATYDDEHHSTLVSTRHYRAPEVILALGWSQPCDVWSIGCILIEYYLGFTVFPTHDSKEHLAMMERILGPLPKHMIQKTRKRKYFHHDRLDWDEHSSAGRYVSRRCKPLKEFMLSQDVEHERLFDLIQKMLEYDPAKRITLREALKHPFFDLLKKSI
Casein kinase I isoform epsilon, sequence (P49674 whole entry, canonical isoform): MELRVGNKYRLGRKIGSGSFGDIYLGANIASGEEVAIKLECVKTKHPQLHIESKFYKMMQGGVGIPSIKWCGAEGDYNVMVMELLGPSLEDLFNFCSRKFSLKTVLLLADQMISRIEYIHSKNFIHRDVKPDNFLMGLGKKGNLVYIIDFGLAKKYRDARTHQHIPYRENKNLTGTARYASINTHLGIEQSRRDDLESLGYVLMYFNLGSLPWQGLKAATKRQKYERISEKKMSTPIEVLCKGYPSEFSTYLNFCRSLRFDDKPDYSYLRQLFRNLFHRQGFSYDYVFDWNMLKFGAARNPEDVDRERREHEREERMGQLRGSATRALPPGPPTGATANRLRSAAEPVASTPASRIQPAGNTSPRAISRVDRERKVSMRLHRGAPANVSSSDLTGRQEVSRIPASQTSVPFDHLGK
Dual specificity protein kinase CLK4, sequence (Q9HAZ1 whole entry): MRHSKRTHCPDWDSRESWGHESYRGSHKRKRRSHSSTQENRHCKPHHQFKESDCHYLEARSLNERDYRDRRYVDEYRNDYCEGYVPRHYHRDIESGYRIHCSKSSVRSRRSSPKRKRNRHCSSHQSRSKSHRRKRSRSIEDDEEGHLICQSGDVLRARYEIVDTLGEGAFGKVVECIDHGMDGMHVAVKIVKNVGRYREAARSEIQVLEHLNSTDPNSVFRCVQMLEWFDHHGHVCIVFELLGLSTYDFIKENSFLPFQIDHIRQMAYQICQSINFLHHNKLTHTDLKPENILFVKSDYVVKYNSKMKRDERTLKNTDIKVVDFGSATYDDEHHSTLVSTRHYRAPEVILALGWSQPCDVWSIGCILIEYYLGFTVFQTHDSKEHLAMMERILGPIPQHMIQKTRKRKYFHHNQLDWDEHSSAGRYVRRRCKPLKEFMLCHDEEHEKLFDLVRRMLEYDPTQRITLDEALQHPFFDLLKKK
Dual specificity protein kinase CLK2, sequence (P49760 whole entry): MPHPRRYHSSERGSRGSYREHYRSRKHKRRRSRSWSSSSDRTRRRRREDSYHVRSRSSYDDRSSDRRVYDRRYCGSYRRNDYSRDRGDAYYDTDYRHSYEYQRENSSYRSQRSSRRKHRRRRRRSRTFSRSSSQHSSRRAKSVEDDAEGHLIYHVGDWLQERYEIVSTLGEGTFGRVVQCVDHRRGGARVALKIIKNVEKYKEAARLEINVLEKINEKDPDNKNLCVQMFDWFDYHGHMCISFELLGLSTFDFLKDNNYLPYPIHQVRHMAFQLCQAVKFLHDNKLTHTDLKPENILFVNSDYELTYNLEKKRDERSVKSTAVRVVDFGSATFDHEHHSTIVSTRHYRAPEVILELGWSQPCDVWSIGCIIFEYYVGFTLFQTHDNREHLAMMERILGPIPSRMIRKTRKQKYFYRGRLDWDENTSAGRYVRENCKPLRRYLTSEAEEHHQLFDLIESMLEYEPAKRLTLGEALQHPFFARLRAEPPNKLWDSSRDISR

- IC50 [3]: 73 nM
- IC50 (PC-3): 3920 nM
- IC50 (HCT-116): 2790 nM
- IC50 (MDA-MB-468): 3690 nM
- IC50 [11]: 122 nM
- IC50 (MGC-803): 3520 nM
- IC50 [13]: 38 nM
- IC50 (NCI-H1299): 4050 nM
- IC50 (HepG2): 250 nM
- IC50 (MCF7): 2670 nM
- IC50 [20]: 390 nM
- IC50 [24]: 278 nM
- IC50 (A549): 370 nM
- IC50 (HT-29): 3370 nM
- Activity (Cell membrane): 80.9%
- IC50 (MDA-MB-231 [30]): 3550 nM
- IC50 (K562): 240 nM
- IC50 [33]: 23 nM
SMILES: OCCN1CCC(C2CCN(c3nc(NCc4cccc(F)c4F)c4ncn(C5CCCC5)c4n3)CC2)CC1
- Activity (MDA-MB-231 [1]): 48.6%
- Activity (MDA-MB-231 [2]): Active
- Activity (MDA-MB-231 [4]): ~100%
- Activity (MDA-MB-231 [5]): Active
- Activity (MDA-MB-231 [6]): 24.88 um
- Activity (MDA-MB-231 [7]): 5.6%
- Activity (MDA-MB-231 [8]): >95%
- Activity (HUVEC [9]): Active
- Activity (MDA-MB-231 [10]): Active
- IC50 at 48 h [12]: 6180 nM
- Activity (MDA-MB-231 [14]): Active
- Activity (MDA-MB-231 [15]): Active
- Activity (MDA-MB-231 [16]): Active
- Activity (MDA-MB-231 [17]): Active
- Activity (MDA-MB-231 [18]): >95%
- Activity (HUVEC [19]): Active
- Activity (MDA-MB-231 [21]): 13%
- inhibition (MDA-MB-231 [22]): Active
- Activity [23]: Non-Toxic
- Activity (MDA-MB-231 [25]): Active
- Activity (MDA-MB-231 [26]): ~100%
- Activity (MDA-MB-231 [27]): 54.9%
- Activity (MDA-MB-231 [28]): Active
- Activity (MDA-MB-231 [29]): >95%
- Activity [31]: Non-Toxic
- Activity (MDA-MB-231 [32]): Active
- Activity (MDA-MB-231 [34]): 53.38 um
- Activity (MDA-MB-231 [35]): Active
- IC50 at 48 h [36]: 4280 nM
